Measured values as given in PMC10644342, “Improved Antibacterial Activity of 1,3,4-Oxadiazole-Based Compounds That Restrict Staphylococcus aureus Growth Independent of LtaS Function” (ACS Infectious Diseases, 2023).
Converted amounts (≈) assume the structure as drawn. Like-named read-outs stand apart in the source and are kept apart here. Peptide text beside a SMILES is read from it. * marks the point of attachment. βNA = c1ccc2cc(N*)ccc2c1

Assays:
S. aureus = assay: MIC, broth microdilution (CLSI); format: cell-based, Staphylococcus aureus; conditions: for fold increase in the MIC when compared to 1771: S. aureus and S. epidermidis strains; for MIC: Staphylococcus aureus, read-out: minimum inhibitory concentration
Protocol: (§1) S. aureus, S. epidermidis, E. faecalis, and E. faecium strains were routinely cultivated on tryptic soy agar (TSA) and grown for 18 h at 37 °C. S. aureus single colonies were subsequently transferred into 2 mL of tryptic soy broth (TSB) and grown for a further 18 h at 37 °C while being shaken at 180 rpm. S. pyogenes, S. agalactiae, and S. dysgalactiae strains were routinely cultured on TSA supplemented with 5% sheep blood and grown for 18 h at 37 °C with 5% CO2. E. coli was grown in LB broth at 37 °C. For LtaS-deficient strains, TSB was supplemented with 0.5 M NaCl to provide an osmotically balanced environment and instead grown at 30 °C. For strains harboring the pRMC2 tetracycline inducible vector,[61] the growth medium was supplemented with 10 μg/mL chloramphenicol and […] anhydrotetracycline hydrochloride (Sigma). Phenylalanine-arginine β-naphthylamide (PAβN) (Sigma) was dissolved in sterile water.
(§2) B. subtilis, staphylococcal, and enterococcal strains were grown in Mueller Hinton broth (MHB), while streptococcal strains were grown in MHB supplemented with 5% laked horse blood. All strains were grown for 18 h at 37 °C. The overnight cultures were subsequently subcultured 1:200 and grown to the exponential phase (OD600nm = 0.5–0.6) in fresh broth. 1771 and its derivatives 9–14 were reconstituted in DMSO and further diluted by performing a 1:2 serial dilution ranging between 256 and 0.125 μg/mL in a 96-well microtiter plate. One hundred microliters of 0.5 McFarland standardized inoculum (approximately equal to 5 × 10^5 cfu) were then dispensed into each well in the 96-well microtiter plate. The plate was incubated for 18 h at 37 °C.

S. epidermidis = assay: MIC, broth microdilution (CLSI); format: cell-based, Staphylococcus epidermidis; conditions: Staphylococcus epidermidis, read-out: minimum inhibitory concentration
Protocol: as §1, §2

S. aureus strain SH1000 = assay: Biofilm prevention, crystal violet assay; format: cell-based, Staphylococcus aureus; conditions: for concentration causing a 50% reduction in biofilm formation: SH1000, 24 h; for biofilm prevention compared with 1771: SH1000
Protocol: (§3) An indication of the biofilm prevention capabilities of 1771 and its derivatives 9–14 was achieved through the application of the crystal violet assay. S. aureus strain SH1000 and S. epidermidis strain RP62A were used, as they are strong biofilm formers. Overnight cultures were diluted 1:200 in fresh TSB containing 0.5% glucose (TSB-G), and 100 μL was added to individual wells in a 96-well microtiter plate. One hundred microliters of 1771 and 9–14 were diluted in TSB-G and added to bacteria at a final concentration ranging from 256 to 0.25 μg/mL with subsequent incubation for 24 h at 37 °C in a static incubator. Following incubation, biofilms were washed four times with ddH2O before being stained with 150 μL of 0.1% crystal violet for 30 min at room temperature. Following a further four washes in ddH2O, wells were resuspended in 200 μL of 7% acetic acid. The absorbance intensity of the crystal violet was measured at abs595nm in a Sunrise plate reader. Biomass formed was measured as a percentage of the no-compound control.

[1] = test system: S. epidermidis strain RP62A; assay: Biofilm prevention, crystal violet assay; format: cell-based, Staphylococcus epidermidis; conditions: for concentration causing a 50% reduction in biofilm formation: 24 h
Protocol: as §3

LTA = LTA quantification by Western blot; format: cell-based, Staphylococcus aureus; conditions: strain LAC, 1× and 4× the MIC
Protocol: Overnight cultures of S. aureus strains were diluted 1:200 in fresh TSB and grown to an optical density of OD600nm 0.3. […] Vancomycin and daptomycin at 1× and 4× MIC were also included as control antibiotics. Cells were then normalized to have 10 mL of OD600nm 0.6, pelleted at 4000 rpm, and resuspended in 300 μL of PBS containing 200 μg/mL lysostaphin. This suspension was then incubated at 37 °C for 45 min to allow digestion of the cell wall to occur. One hundred microlitres of 4× SDS sample buffer were then added, and the mixture was boiled at 95 °C for 20 min. The insoluble material was then removed by pelleting at 16,000 rpm for 10 min. The supernatant containing LTA was then subjected to SDS-PAGE on a 4–20% Tris-glycine gel (Bio-Rad). The gel was transferred onto a PVDF membrane using a Trans-Blot Turbo Transfer System (Bio-Rad). The membrane was blocked overnight in TBST containing 5% semi-skimmed milk before being incubated with a mouse anti-LTA antibody (Hycult; HM2048; 1:2000 dilution) followed by a goat antimouse-HRP secondary antibody (Proteintech; SA00001; 1:2000 dilution) before being visualized using an Amersham-ECL kit (Cytiva).

E. coli strain K12 = assay: Growth inhibition in combination with PAβN; format: cell-based, Escherichia coli; conditions: PAβN alone up to 100 μg/mL
Protocol: Phenylalanine-arginine β-naphthylamide (PAβN) is a well-studied efflux pump inhibitor, which can also permeabilize the outer membrane of Gram-negative organisms.[40] […] Without the addition of PAβN (0 μg/mL), neither 1771 nor 13 had any growth inhibitory activity at concentrations up to 64 μg/mL. With the addition of 25 μg/mL of PAβN, the E. coli strain K12 could still grow in the presence of 64 μg/mL of 1771 or 13; however, the growth rate was severely impacted in a dose-dependent manner. […] To further evaluate the Gram-negative coverage of 1771 and 13, we also tested 1771 or 13 in combination with PAβN against Pseudomonas aeruginosa strain PAO1, Klebsiella pneumoniae strain 699 (clinical isolate), and Acinetobacter baumannii strain DF1000 (clinical isolate) (Figure S6a–c).
Figure 8 Permeabilization of the outer membrane renders E. coli susceptible to 1771 and 13. Bacterial growth curves of (a) 1771 and (b) 13 (0–64 μg/mL) in combination with 0, 25, 50, and 100 μg/mL of PAβN. The bacterial growth (OD600nm) was plotted against time following 18 h of growth at 37 °C. The icons represent the mean of three biological replicates.

| SMILES | fold increase in the MIC when compared to 1771 (S. aureus) | MIC (S. aureus; NEWMAN, strain Newman) [µg/mL] | MIC (S. aureus; strain EMRSA-15) [µg/mL] | MIC (S. aureus; strain LAC) [µg/mL] | MIC (S. aureus; strain MRSA252) [µg/mL] | MIC (S. aureus; strain MW2) [µg/mL] | MIC (S. aureus; strain Mu3) [µg/mL] | MIC (S. aureus; strain Mu50) [µg/mL] | MIC (S. aureus; strain SH1000) [µg/mL] | MIC (S. aureus; strain TW20) [µg/mL] | MIC (S. epidermidis; strain 305) [µg/mL] | MIC (S. epidermidis; strain 311) [µg/mL] | MIC (S. epidermidis; strain 319) [µg/mL] | MIC (S. epidermidis; strain 322) [µg/mL] | MIC (S. epidermidis; strain 771) [µg/mL] | MIC (S. epidermidis; strain 780) [µg/mL] | MIC (S. epidermidis; strain RP62A) [µg/mL] | concentration causing a 50% reduction in biofilm formation (S. aureus strain SH1000) [µg/mL] | concentration causing a 50% reduction in biofilm formation [1] [µg/mL] | also measured |
| --- | --- | --- | --- | --- | --- | --- | --- | --- | --- | --- | --- | --- | --- | --- | --- | --- | --- | --- | --- | --- |
| O=C(COC(=O)Cc1coc2ccc3ccccc3c12)Nc1nnc(-c2ccccc2)s1 [Compound 14, 2-Oxo-2-((5-phenyl-1,3,4-thiadiazol-2-yl)amino)ethyl 2-(Naphtho[2,1-b]furan-1-yl)acetate] | 4- to 16 fold | > 64 | > 64 | > 64 | > 64 | > 64 | > 64 | > 64 | > 64 | > 64 | > 64 | > 64 | > 64 | > 64 | > 64 | > 64 | > 64 | 32 to 64 | 16 to 64 |  |
| O=C(COC(=O)Cc1coc2ccc3ccccc3c12)Nc1nnc(-c2cccc(Cl)c2)o1 [Compound 10, 2-((5-(3-Chlorophenyl)-1,3,4-oxadiazol-2-yl)amino)-2-oxoethyl 2-(Naphtho[2,1-b]furan-1-yl)acetate] | 4- to 16 fold | 64 (≈ 139 µM) | 32 to 64 (≈ 69.3 to 139 µM) | 64 (≈ 139 µM) | 64 (≈ 139 µM) | 64 (≈ 139 µM) | 64 (≈ 139 µM) | 64 (≈ 139 µM) | 64 (≈ 139 µM) | 64 (≈ 139 µM) | 32 to 64 (≈ 69.3 to 139 µM) | 32 to 64 (≈ 69.3 to 139 µM) | 64 (≈ 139 µM) | 64 (≈ 139 µM) | 32 to 64 (≈ 69.3 to 139 µM) | 32 to 64 (≈ 69.3 to 139 µM) | 64 (≈ 139 µM) | 32 to 64 | 16 to 64 |  |
| Cc1c(N)cccc1Cn1ccc(OCCc2cccs2)cc1=O [nilofabicin] |  |  |  |  |  |  |  |  |  |  |  |  |  |  |  |  |  |  |  | LTA signal by Western blot (LTA): substantial decrease in LTA production |
| COc1ccc2c(ccc3occ(CC(=O)OCC(=O)Nc4nnc(-c5ccccc5)o4)c32)c1 [Compound 9, 2-Oxo-2-((5-phenyl-1,3,4-oxadiazol-2-yl)amino)ethyl 2-(7-Methoxynaphtho[2,1-b]furan-1-yl)acetate] | 4- to 16 fold | 32 (≈ 70 µM) | 64 (≈ 140 µM) | 32 to 64 (≈ 70 to 140 µM) | 64 (≈ 140 µM) | 64 (≈ 140 µM) | 64 (≈ 140 µM) | 64 (≈ 140 µM) | 32 (≈ 70 µM) | 32 (≈ 70 µM) | 64 (≈ 140 µM) | 64 (≈ 140 µM) | 64 (≈ 140 µM) | 64 (≈ 140 µM) | 64 (≈ 140 µM) | 32 (≈ 70 µM) | 32 (≈ 70 µM) | 32 to 64 | 16 to 64 |  |
| NC(N)=NCCC[C@H](NC(=O)[C@@H](N)Cc1ccccc1)C(=O)Nc1ccc2ccccc2c1 [PAβN, Phenylalanine-arginine β-naphthylamide] (H-Phe-Arg-βNA) |  |  |  |  |  |  |  |  |  |  |  |  |  |  |  |  |  |  |  | impact on growth (E. coli strain K12): very limited impact on growth |
| COc1ccc2c(ccc3occ(CC(=O)OCC(=O)Nc4nnc(-c5cccc(Cl)c5)o4)c32)c1 [Compound 11, 2-((5-(3-Chlorophenyl)-1,3,4-oxadiazol-2-yl)amino)-2-oxoethyl 2-(7-Methoxynaphtho[2,1-b]furan-1-yl)acetate] |  | 2 (≈ 4.07 µM) | 2 (≈ 4.07 µM) | 4 (≈ 8.13 µM) | 4 (≈ 8.13 µM) | 2 (≈ 4.07 µM) | 2 (≈ 4.07 µM) | 2 (≈ 4.07 µM) | 2 (≈ 4.07 µM) | 2 (≈ 4.07 µM) | 2 to 4 (≈ 4.07 to 8.13 µM) | 2 (≈ 4.07 µM) | 2 (≈ 4.07 µM) | 4 (≈ 8.13 µM) | 2 (≈ 4.07 µM) | 4 (≈ 8.13 µM) | 2 to 4 (≈ 4.07 to 8.13 µM) |  |  | biofilm prevention compared with 1771 (S. aureus strain SH1000): better than 1771; biofilm prevention compared with 1771 [1]: better than 1771 |
| O=C(COC(=O)Cc1coc2ccc3ccccc3c12)Nc1nnc(-c2ccc(F)cc2)o1 [Compound 12, 2-((5-(4-Fluorophenyl)-1,3,4-oxadiazol-2-yl)amino)-2-oxoethyl 2-(Naphtho[2,1-b]furan-1-yl)acetate] |  | 8 (≈ 18 µM) | 8 (≈ 18 µM) | 8 (≈ 18 µM) | 16 (≈ 35.9 µM) | 8 (≈ 18 µM) | 8 (≈ 18 µM) | 4 to 8 (≈ 8.98 to 18 µM) | 8 (≈ 18 µM) | 8 (≈ 18 µM) | 8 (≈ 18 µM) | 4 to 8 (≈ 8.98 to 18 µM) | 4 to 8 (≈ 8.98 to 18 µM) | 8 (≈ 18 µM) | 4 to 8 (≈ 8.98 to 18 µM) | 4 to 8 (≈ 8.98 to 18 µM) | 4 to 8 (≈ 8.98 to 18 µM) |  |  | biofilm prevention compared with 1771 (S. aureus strain SH1000): worse than 1771; biofilm prevention compared with 1771 [1]: better |
